For data set [1], the system named is HC1 human colon carcinoma. Description: HC1 human colon carcinoma xenograft in mice, tumor weight inhibition. The class given is in vivo, Nu/Nu CD-1 mice. Particulars: 14 day delay. The text has this: The HC1 human colon carcinoma xenograft was obtained in 1987 from Drs. Peter and Janet Houghton, St. Jude Children's Hospital, Memphis, TN. The tumor is a moderately well-differentiated adenocarcinoma of the ascending colon [British Journal of Cancer, 37, p 213-223 (1987)]. The first passage tumor was stored in liquid nitrogen using standard techniques. The tumors were maintained in serial passage Nu/Nu CD-1 mice (Charles River Laboratories, Portage, MI.).
The study testing the efficacy of these compounds against HC1 human colon carcinoma was initiated by removing a tumor from passage animals and mincing it into 1 to 3 mm square fragments using sterile techniques. Tumor pieces were checked for sterility using both an Antibiotic Medium 1 and Brain Heart Infusion (Difco; Detroit, MI). Tumor pieces were implanted subcutaneously in the auxilary region of recipient mice by trocar. Drug therapy on the appropriate schedule was initiated 14 days after tumor implantation. Drugs were dissolved in Emulphor for all experiments. All animals were weighed at the beginning and end of drug treatment. Food and water were provided ad libitum. On day 14 after the initiation of therapy, two dimensional measurements (width and length) of all tumors were taken using electronic calipers interfaced to a computer. Tumor weights were calculated from these measurements using the following formula: Tumor Weight (mg) = Tumor Length (mm) X Tumor Width (mm)²/2
For all data, the tumor weight was rounded to the nearest tenth of a gram for analysis. No group is included in the analysis for therapeutic activity in which deaths attributable to drug toxicity exceeded 20 percent of the treated group. Compounds are considered active if more than 60 percent inhibition of tumor growth, as determined by tumor weight, is achieved at maximally tolerated doses.
In Table 2 which follows, Column 1 gives the example number of the compound tested; Column 2, the dose level; Column 3, the route administered; Column 4, the dosage schedule; Column 5, the percent inhibition of the tumor; and Column 6; the toxic deaths observed prior to completion of the study.
On the technique in general: Xenograft models place foreign cells or tissue in a host animal.

Another data set deals with Hepatitis B Virus. Description: Hepatitis B Virus Test (HBV DNA in supernatant of Hep10A cells, PCR / Southern blot). The class given is cell-based, human Hepatitis B Virus (HBV). Particulars: 240 h. The text has this:
Plasmids were constructed using standard recombinant DNA techniques; see Sambrook, J., et al., Molecular Cloning: A Laboratory Manual, 2nd Edition (1989), Cold Spring Harbor Press, Cold Spring Harbor, NY. Plasmid pTHBV contains a head-to-tail dimer of the human Hepatitis B Virus (HBV) genome, subtype adw, clone into the EcoR I site of pUC9. […] and subcloned into the Sal I site of pTHBV after a two base fill-in reaction with the Klenow fragment of E. coli DNA polymerase I.
HepG2 cells (human hepatoblastoma, ATCC HB 8065) were routinely passaged in growth medium consisting of EARLE'S minimal essential media (Grand Island Biological Company (GIBCO) Bethesda Research Laboratories (BRL), Life Technologies, Inc., Gathersburg, MD.) supplemented with sodium pyruvate, 10 percent fetal bovine serum, 100 units/ml penicillin, and 100 µg/ml streptomycin. Hep10A cells were derived from HepG2 cells. Briefly, HepG2 cells were seeded into 60 mm culture dishes in growth medium, and when approximately 50 percent confluent, were transfected with pTHBVneo using the calcium phosphate precipitation method described by Graham, F.L. and Van der Eb in Virology, 52, p 456-467 (1973). After four hours of post-transfection, the cells were shocked with 10 percent dimethylsulfoxide and 20 percent glucose for 5 minutes, after which they were allowed to recover for 24 horus. The transfected cells were passaged and reseeded in the presence of growth medium containing 800 µg/ml geneticin. The cells were monitored for the appearance of geneticin resistant cells. A genecitin resistant cell line was established, and routinely passaged in growth medium containing 400 µg/ml geneticin. This cell line will be referred to as Hep10A.
Hep10A cells were seeded into 96-well microtiter plates at a density of approximately 50,000 cells per well, allowed to grow to confluence, and maintained at confluence for 2 to 4 days to allow Hepatitus B Virus derivative HBV DNA levels to stabilize; see Sells, M.A., et al., J. Virol., 62, p 2836-2844 (1987) and Korba, B.E., et al., Antiviral Res., 15, p 217-228 (1991). At this time, cells were treated with 2'-deoxy-2'-fluoroarabino-5-iodouridine (FIAU) and the compound of Example 5 for 10 days, with daily changes of media containing fresh drug. FIAU was used as a positive control. On day 10, culture supernatant samples were taken and stored at 4°C until needed. PCR analysis was performed on supernatant samples using appropriate primers to amplify a 477 base pair fragment from the "a" determinant of the surface antigen gene of HBV subtype adw. Following eletrophoresis through agarose gels, the DNA was transferred to nylon membranes (Optiblot™, IBI, New Haven, CT) by capillary action (Southern, 1975) using 1X saline sodium citrate (SSC) (1X SSC=0.15 M NaCl, 0.015 M sodium citrate). After baking in vacuo for 30 minutes, the blots were hybridized for 15 to 18 hours to 1x10⁶ cpm/ml of […] the method of random priming (Feinberg and Vogelstein, 1983). Hybridization was carried out at 42°C using 50 percent N,N-dimethylformamide, 6X saline sodium phosphate ethylenediamine tetraacetic acid (SSPE), 1.0 percent sodium dodyl sulfate (SDS), and 50 µg/ml salmon sperm DNA (1X SSPE=0.18 M NaCl; […] NaH₂PO₄, pH 7.4; 1 mmol ethylene diamine tetraacetic acid (EDTA)). The hybridized blots were washed as follows: twice in 2X SSC/0.1 percent SDS at room temperature for 1 hour, once in 0.1X SSC/0.1 percent SDS at room temperature for 30 minutes, and once in 0.1x SSC/0.1 percent supplemented with SDS at 65°C for 15 minutes. The filters were exposed to x-ray film and quantitated by densitometry.

Setting [2] is: 05 mg/kg, Intra-Peritoneal 0.5 ml, 1,3,5,7 9.
[3] abbreviates: 10 mg/kg, Intra-Peritoneal 0.5 ml, 1,3,5,7 9.
Where [4] appears, read: 20 mg/kg, Intra-Peritoneal 0.5 ml, 1,3,5,7 9.
The mark [5] stands for this setting: 40 mg/kg, Intra-Peritoneal 0.5 ml, 1,3,5,7 9.
Setting [6] is: 80 mg/kg, Intra-Peritoneal 0.5 ml, 1,3,5,7,9.
The mark [7] stands for this setting: read-out: Percent Inhibition at Specified µg/ml conc.

Here are results for one compound from patent EP0576227A2, “2'-Deoxy-2',2'-difluoro(2,6,8-substituted) purine nucleosides having anti-viral and anti-cancer activity and intermediates” (ELI LILLY AND COMPANY, priority 1992, dated 1993).

Each structure is given as a SMILES string.

Consider `CNc1nc(N)nc2c1ncn2[C@@H]1O[C@H](CO)[C@@H](O)C1(F)F` [Example 5, 2-deoxy-2,2-difluoro-D-ribofuranosyl-1-β-(2-amino-6-methylaminopurine)], for which the “Percent Inhibition of Tumor” value amounted to 92% in data set [1] (setting [2]); 92% in data set [1] (setting [3]); 93% in data set [1] (setting [4]); 94% in data set [1] (setting [5]); 95% in data set [1] (setting [6]). In addition, the “Toxic Deaths” value is reported as 0/8 in data set [1] (setting [2]); 0/8 in data set [1] (setting [3]); 0/8 in data set [1] (setting [4]); 1/8 in data set [1] (setting [5]); 0/8 in data set [1] (setting [6]). For the same compound, the inhibition at 0.1 µg/mL in the data set with Hepatitis B Virus (setting [7]) stood at 56.9%. Also, in the data set on Hepatitis B Virus (setting [7]), the inhibition at 1 µg/mL is 81.9%. In addition, in the data set with Hepatitis B Virus (setting [7]), the inhibition at 10 µg/mL turned out to be 84.6%. Also, in the data set with Hepatitis B Virus (setting [7]), the inhibition at 100 µg/mL is 83.9%. The IC50 in the data set with Hepatitis B Virus (read-out: concentration required to inhibit HBV DNA replication by 50 percent) was less than 0.1 µg/mL.
